From article doi:10.1101/510487v2 (biorxiv, 2019) come the findings set out here.

One data set has as its target T1, FH-hGlyT2; human GlyT2 (Homo sapiens, UniProt Q9Y345).
T1 sequence (Q9Y345 1-797): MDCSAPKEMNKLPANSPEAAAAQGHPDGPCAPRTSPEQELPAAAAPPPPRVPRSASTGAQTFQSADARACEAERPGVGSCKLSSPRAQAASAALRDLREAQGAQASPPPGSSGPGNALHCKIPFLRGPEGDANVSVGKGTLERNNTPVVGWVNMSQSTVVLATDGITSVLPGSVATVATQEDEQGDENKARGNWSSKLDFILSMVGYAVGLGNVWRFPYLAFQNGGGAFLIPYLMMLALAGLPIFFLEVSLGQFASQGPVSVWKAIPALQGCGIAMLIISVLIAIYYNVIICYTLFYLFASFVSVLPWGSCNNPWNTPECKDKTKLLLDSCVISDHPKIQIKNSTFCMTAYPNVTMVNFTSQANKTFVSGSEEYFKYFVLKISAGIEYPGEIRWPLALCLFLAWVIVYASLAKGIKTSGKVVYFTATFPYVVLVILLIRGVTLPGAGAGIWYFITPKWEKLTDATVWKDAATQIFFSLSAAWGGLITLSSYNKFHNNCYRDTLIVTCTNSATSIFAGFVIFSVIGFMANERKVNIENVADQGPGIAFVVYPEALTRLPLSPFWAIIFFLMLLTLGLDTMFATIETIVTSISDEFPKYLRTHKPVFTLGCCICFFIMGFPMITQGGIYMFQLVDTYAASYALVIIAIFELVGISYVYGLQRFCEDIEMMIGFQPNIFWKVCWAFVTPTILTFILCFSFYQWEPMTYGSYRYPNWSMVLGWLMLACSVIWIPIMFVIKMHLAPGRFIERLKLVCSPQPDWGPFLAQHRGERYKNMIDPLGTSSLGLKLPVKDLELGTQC
Description: glycine uptake inhibition in PAE cells. It is filed as cell-based.

Substrate in data set [1]: NCC(=O)O
Description: glycine uptake in PAE cells. In kind it is cell-based, Homo sapiens.

On to `N[C@@H](COC(c1cccc(F)c1)c1ccccc1OCc1ccccc1)C(=O)O` (stereo partly drawn) [ALX1393, reference compound], for which inhibition on FH-hGlyT2; human GlyT2 (pH 7.5, 10 min uptake) was half-maximal at 26 ± 3 nM (IC50).

For `CN(CC[C@@H](Oc1ccc(-c2ccccc2)cc1)c1ccc(F)cc1)CC(=O)O` [ALX5407, reference compound], the 50% inhibitory concentration (IC50) against FH-hGlyT2; human GlyT2 (slow rate of inhibition, data not shown) is 1800 nM. The molecule `O=c1[nH]c2c(c(=O)[nH]1)CCN(Cc1ccccc1)C2` [Lead 3] had an IC50 on FH-hGlyT2; human GlyT2 (pH 7.5, 10 min uptake) of 33200 nM. Still for that read-out and setting: under `O=C(O)CCCCSc1ncnc2[nH]c(=O)[nH]c12` [ZINC6865169] stands 518 ± 66 nM; under `O=C(O)CCSc1[nH]c(=O)nc2[nH]c(=O)[nH]c12` [compound 1, ZINC6620309], 478 ± 28 nM.

B1: FH-hGlyT2; human GlyT2 (Homo sapiens) (protein)
chain: MDCSAPKEMNKLPANSPEAAAAQGHPDGPCAPRTSPEQELPAAAAPPPPRVPRSASTGAQTFQSADARACEAERPGVGSCKLSSPRAQAASAALRDLREAQGAQASPPPGSSGPGNALHCKIPFLRGPEGDANVSVGKGTLERNNTPVVGWVNMSQSTVVLATDGITSVLPGSVATVATQEDEQGDENKARGNWSSKLDFILSMVGYAVGLGNVWRFPYLAFQNGGGAFLIPYLMMLALAGLPIFFLEVSLGQFASQGPVSVWKAIPALQGCGIAMLIISVLIAIYYNVIICYTLFYLFASFVSVLPWGSCNNPWNTPECKDKTKLLLDSCVISDHPKIQIKNSTFCMTAYPNVTMVNFTSQANKTFVSGSEEYFKYFVLKISAGIEYPGEIRWPLALCLFLAWVIVYASLAKGIKTSGKVVYFTATFPYVVLVILLIRGVTLPGAGAGIWYFITPKWEKLTDATVWKDAATQIFFSLSAAWGGLITLSSYNKFHNNCYRDTLIVTCTNSATSIFAGFVIFSVIGFMANERKVNIENVADQGPGIAFVVYPEALTRLPLSPFWAIIFFLMLLTLGLDTMFATIETIVTSISDEFPKYLRTHKPVFTLGCCICFFIMGFPMITQGGIYMFQLVDTYAASYALVIIAIFELVGISYVYGLQRFCEDIEMMIGFQPNIFWKVCWAFVTPTILTFILCFSFYQWEPMTYGSYRYPNWSMVLGWLMLACSVIWIPIMFVIKMHLAPGRFIERLKLVCSPQPDWGPFLAQHRGERYKNMIDPLGTSSLGLKLPVKDLELGTQC
With B1, in data set [1], the Michaelis-Menten constant (Km) worked out at 123 µM.

As a reminder, the IC50 is the concentration that inhibits the measured activity by half. By Km is commonly meant the concentration of substrate that gives half-maximal velocity.
